# Data from US20070066580A1, “Novel aldosterone antagonists and uses thereof” (Recordati Ireland Limited, priority 2005, published 2007).
# Columns and labels:
# [1] = biological target: T1, GAL4 DBD-hMR LBD fusion protein (Homo sapiens, UniProt P08235); assay: Cell-based luciferase assay, agonist mode (CV-1 cells); conditions: 10 μM of compound
# T1 construct: expressed in transfected cells; host or cells: CV-1 cells (African green monkey kidney), transient co-transfection with pCMX-GAL4-based vector and Galp3TKLuc reporter
# Text: GAL4 DBD-hMR LBD fusion protein expression vector: A pCMX-GAL4-based vector was used for the expression of a fusion protein composed of the amino acids 1-147 of the DNA binding domain of Saccharomyces cerevisiae GAL4 (GAL4 DBD) (SEQ ID NO: 16) and amino acid residues 729-984 of the ligand binding domain of human mineralocorticoid receptor (hMR LBD) (SEQ ID NO: 14). The expression vector contained an expression cassette of the nucleotide sequence for the GAL4 DBD (See SEQ ID NO: 19) ligated to nucleotides 2401 through 3168 of the human mineralocorticoid (hMR) receptor (SEQ ID NO: 13).
# In vitro cell culture: CV-1 cells (African green monkey kidney cell line, ATCC accession number CCL-70) were maintained in culture in 90% DMEM medium supplemented by 9% FCS and 1% Penicillin-Streptomycin-L-Glutamine at 37° C. under 8.5% CO2.
# These cells were transiently co-transfected with the GAL4 DBD-hMR LBD fusion protein expression vector and the Galp3TKLuc reporter gene vector using the FuGENE 6 Transfection Reagent (Roche) according to the manufacturer's instructions.
# Agonist assay: As a positive control, aldosterone (Acros Organics, catalogue # 215360050) was used at a concentration of 100 nM. The negative control sample was 90% DMEM medium supplemented by 9% charcoal-treated FCS and 1% Penicillin-Streptomycin-L-Glutamine containing 0.2% DMSO plus 0.02% ethanol. Positive control, negative control, or 10 μM final concentration of test compound was added to the cells and incubated for 24 hours at 37° C. under 8.5% CO2 before the Luciferase substrate (Promega, catalogue number #E2620) was added. After an incubation period of 5 min at RT, luminescence signals were read on a microplate reader (Molecular Devices/LJL Biosystems). Negative and positive controls were defined as 0% and 100% agonism, respectively. The agonistic potency of test compounds is given in % and was normalized to the positive and negative controls.
# aldosterone receptor = biological target: T2, aldosterone receptor (Rattus norvegicus, UniProt P22199); assay: Kagawa model, urinary Na+/K+ ratio in adrenalectomised rats given aldosterone; assay type: in vivo; conditions: adrenalectomized rats, oral gavage, aldosterone 3 μg/animal s.c.
# T2 construct: from tissue; host or cells: whole animal: adrenalectomised male Sprague-Dawley rats
# T2 sequence (P22199 1-981): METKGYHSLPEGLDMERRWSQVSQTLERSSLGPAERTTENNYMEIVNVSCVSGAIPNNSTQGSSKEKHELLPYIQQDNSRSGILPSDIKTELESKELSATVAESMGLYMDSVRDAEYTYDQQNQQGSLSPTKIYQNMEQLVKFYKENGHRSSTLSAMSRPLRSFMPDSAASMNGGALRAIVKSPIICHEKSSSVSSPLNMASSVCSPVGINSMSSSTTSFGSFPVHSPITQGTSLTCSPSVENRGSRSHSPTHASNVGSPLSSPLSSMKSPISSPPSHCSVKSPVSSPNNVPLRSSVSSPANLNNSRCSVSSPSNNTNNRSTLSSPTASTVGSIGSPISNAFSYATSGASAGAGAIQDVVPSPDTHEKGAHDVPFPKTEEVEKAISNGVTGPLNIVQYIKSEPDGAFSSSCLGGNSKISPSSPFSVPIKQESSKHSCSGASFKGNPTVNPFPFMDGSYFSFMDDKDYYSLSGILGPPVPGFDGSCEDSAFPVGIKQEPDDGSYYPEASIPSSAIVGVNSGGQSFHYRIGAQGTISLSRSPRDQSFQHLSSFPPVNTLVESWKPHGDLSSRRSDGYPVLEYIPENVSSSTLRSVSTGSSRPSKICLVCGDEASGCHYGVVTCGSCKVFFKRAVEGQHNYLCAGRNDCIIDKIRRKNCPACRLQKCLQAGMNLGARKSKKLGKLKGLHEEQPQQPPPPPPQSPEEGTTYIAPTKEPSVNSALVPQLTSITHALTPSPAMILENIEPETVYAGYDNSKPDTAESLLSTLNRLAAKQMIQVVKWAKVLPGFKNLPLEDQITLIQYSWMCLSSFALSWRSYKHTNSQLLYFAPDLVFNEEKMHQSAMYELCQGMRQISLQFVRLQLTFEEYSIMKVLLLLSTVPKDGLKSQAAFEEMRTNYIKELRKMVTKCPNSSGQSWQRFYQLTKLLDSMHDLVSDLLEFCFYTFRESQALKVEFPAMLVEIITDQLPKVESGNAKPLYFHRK
# Text: To evaluate the in vivo activity of test compounds as aldosterone receptor antagonists, the Kagawa model was used, with some modifications. The original model first described by Kagawa (Endocrinology 1960; 67:125-131) has been widely utilised and reported in several published papers.
# Bilateral adrenalectomised male Spague-Dawley rats aging approximately 5 weeks and weighing between 150 and 170 g at the time of surgery were obtained from Charles River (UK) Ltd., Margate, Kent. Following adrenalectomy, animals were maintained with standard diet and 0.9% (w/v) saline to drink. Saline replaces sodium ions lost due to the absence of the adrenal glands.
# The animals were maintained for three days in standard condition and were trained in metabolic cages on one occasion prior to the test day for approximately 5 hours.
# Food was withheld from animals overnight prior to dosing. Saline was available ad libitum.
# Approximately 2 hours before dosing, saline was removed from the animals to ensure similar hydration levels. […]
# The cumulative urine volume was measured and collected for analysis at 0-3 and 3-6 hours post-aldosterone. Urine was analysed for urinary sodium and potassium concentration. […]
# Mean Na^+:K^+ ratios from each group were calculated. […]
# The data were analysed using one-way Analysis of Variance (ANOVA). […]
# T1 sequence (P08235 with tags, fused parts or gaps limits assumed): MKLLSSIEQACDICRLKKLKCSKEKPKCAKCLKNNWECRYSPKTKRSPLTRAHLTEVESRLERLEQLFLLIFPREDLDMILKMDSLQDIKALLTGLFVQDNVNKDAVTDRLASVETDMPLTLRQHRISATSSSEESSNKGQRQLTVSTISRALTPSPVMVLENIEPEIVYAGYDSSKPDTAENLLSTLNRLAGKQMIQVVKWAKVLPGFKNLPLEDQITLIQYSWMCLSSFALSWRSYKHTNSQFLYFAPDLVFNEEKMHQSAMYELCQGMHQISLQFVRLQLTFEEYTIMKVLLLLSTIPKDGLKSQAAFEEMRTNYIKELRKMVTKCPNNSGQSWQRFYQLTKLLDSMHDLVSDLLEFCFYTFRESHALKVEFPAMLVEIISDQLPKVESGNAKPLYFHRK
structure (smiles),measurement,setting,value
CCS[C@@H]1CC2=CC(=O)CC[C@]2(C)C2=CC[C@@]3(C)C(CC[C@@]34CCC(=O)O4)C21 (some centres unmarked) [Example 13],potency for activation of MR relative to aldosterone,[1],at least three orders of magnitude less potent than aldosterone
same,urinary Na+/K+ ratio relative to animals only receiving aldosterone,aldosterone receptor,statistically significant increase
